According to PubChem BioAssay AID330 (DTP/NCI, 2004):
Several values for one entry are separate records, joined by “and”; a condition that tells them apart may be missing. Equal values may be shown once. Inconclusive results and toxic doses are left out. Peptide text beside a SMILES is read from it.

Test system: P388 leukemia ip, CD2F1 mice, survival T/C
Assay: NCI In Vivo Anticancer Drug Screen. Data for tumor model P388 Leukemia (intraperitoneal) in CD2F1 (CDF1) mice
Details: endpoint: median survival time, higher = longer survival
In short: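 Mice carrying the transplanted tumor received test compound or vehicle. Survival was recorded in each group, and the value is the treated-group measurement divided by that of the vehicle-treated control group.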

[1] = dose: 50.0 mg/kg/injection, schedule: Q01DX005 (ip), vehicle: saline
[2] = dose: 100.0 mg/kg/injection, schedule: Q01DX005 (ip), vehicle: saline
[3] = dose: 200.0 mg/kg/injection, schedule: Q01DX005 (ip), vehicle: saline
[4] = dose: 25.0 mg/kg/injection, schedule: Q01DX005 (ip), vehicle: saline with Tween-80
[5] = dose: 50.0 mg/kg/injection, schedule: Q01DX005 (ip), vehicle: saline with Tween-80
[6] = dose: 100.0 mg/kg/injection, schedule: Q01DX005 (ip), vehicle: saline with Tween-80
[7] = dose: 50.0 mg/kg/injection, schedule: Q01DX005 (ip), vehicle: Klucel (hydroxypropylcellulose) (HPC)
[8] = dose: 100.0 mg/kg/injection, schedule: Q01DX005 (ip), vehicle: Klucel (hydroxypropylcellulose) (HPC)
[9] = dose: 200.0 mg/kg/injection, schedule: Q01DX005 (ip), vehicle: Klucel (hydroxypropylcellulose) (HPC)
[10] = dose: 100.0 mg/kg/injection, schedule: Q01DX009 (ip), vehicle: saline with Tween-80
[11] = dose: 200.0 mg/kg/injection, schedule: Q01DX009 (ip), vehicle: saline with Tween-80
[12] = dose: 400.0 mg/kg/injection, schedule: Q01DX009 (ip), vehicle: saline with Tween-80
[13] = dose: 25.0 mg/kg/injection, schedule: Q01DX009 (ip), vehicle: saline with Tween-80
[14] = dose: 50.0 mg/kg/injection, schedule: Q01DX009 (ip), vehicle: saline with Tween-80
[15] = dose: 12.5 mg/kg/injection, schedule: Q01DX009 (ip), vehicle: saline with Tween-80

For COC(=O)C(=O)C(C)C(=O)C(C)c1nc2n(c1O)C(=N)N=N2 (stereo unspecified), the T/C [1] was 98 % of control, the T/C [2] was 97 % of control and the T/C [3] was 96 % of control.

With CN1[C@H]2CC[C@@H]1[C@@H](O)CC2 the T/C [4] was 97 % of control, the T/C [5] was 97 % of control and the T/C [6] was 91 % of control.

For N#Cc1ccc(NC(=O)Nc2ccc(Cc3ccc(NC(=O)Nc4ccc(C#N)cc4)cc3)cc2)cc1, the T/C (dose: 15.0 mg/kg/injection, schedule: Q01DX005 (ip), vehicle: Klucel (hydroxypropylcellulose) (HPC)) was 97 % of control, the T/C (dose: 30.0 mg/kg/injection, schedule: Q01DX005 (ip), vehicle: Klucel (hydroxypropylcellulose) (HPC)) was 90 % of control and the T/C (dose: 60.0 mg/kg/injection, schedule: Q01DX005 (ip), vehicle: Klucel (hydroxypropylcellulose) (HPC)) was 87 % of control. For the same compound, the T/C (dose: 120.0 mg/kg/injection, schedule: Q01DX005 (ip), vehicle: Klucel (hydroxypropylcellulose) (HPC)) was 94 % of control.

c1cc2cc(-c3ccc4cc(-c5ccc6oc(C7=NCCN7)cc6c5)[nH]c4c3)[nH]c2cc1C1=NCCN1 was tested, and the T/C [7] was 156 % of control, the T/C [8] was 114 % of control and the T/C [9] was 91 % of control.

For CCCCCCCCCSc1ccc(C(=O)O)cc1, the T/C [10] was 109 % of control, the T/C [11] was 103 % of control and the T/C [12] was 105 % of control.

For COc1ccc2sc(-c3ccccc3)cc(=O)c2c1, the T/C [7] was 100 % of control, the T/C [8] was 101 % of control and the T/C [9] was 101 % of control.

In the case of CCOC(=O)c1ccc(N2N=C3C(=CC(=O)c4ccccc43)SCC2=O)cc1, the T/C (dose: 12.5 mg/kg/injection, schedule: Q01DX005 (ip), vehicle: saline with Tween-80) is reported as 112 % of control, the T/C [4] is reported as 117 % of control and the T/C [5] is reported as 116 % of control.

In the case of CN1CCN=C1c1ccc(NC(=O)c2ccc(C(=O)Nc3ccc(C4=NCCN4C)cc3)c([N+](=O)[O-])c2)cc1, the T/C (dose: 0.78 mg/kg/injection, schedule: Q01DX005 (ip), vehicle: saline with Tween-80) is reported as 110 % of control and 113 % of control, the T/C (dose: 1.56 mg/kg/injection, schedule: Q01DX005 (ip), vehicle: saline with Tween-80) is reported as 112 % of control and 114 % of control and the T/C (dose: 3.13 mg/kg/injection, schedule: Q01DX005 (ip), vehicle: saline with Tween-80) is reported as 124 % of control.

With O=c1oc2ccc(Br)cc2cc1-n1nnc2cc([N+](=O)[O-])ccc21 the T/C [5] was 90 % of control, the T/C [6] was 89 % of control and the T/C (dose: 200.0 mg/kg/injection, schedule: Q01DX005 (ip), vehicle: saline with Tween-80) was 89 % of control.

For CC(/C=C/c1ccccc1)=Nc1ccc(Cl)cc1, the T/C [13] was 100 % of control and 107 % of control, the T/C [14] was 100 % of control and 101 % of control and 107 % of control and the T/C [10] was 100 % of control and 101 % of control. For the same compound, the T/C [11] was 98 % of control.

For O=C(C[n+]1ccccc1)N/N=C/c1cccc([N+](=O)[O-])c1, the T/C [15] was 102 % of control, the T/C [13] was 99 % of control and the T/C [14] was 103 % of control.

CCCCC(O)(c1ccc2nc(NC(=O)OC)[nH]c2c1)c1cccs1 (stereo unspecified) was tested, and the T/C (dose: 25.0 mg/kg/injection, schedule: Q01DX005 (ip), vehicle: other) was 110 % of control, the T/C (dose: 50.0 mg/kg/injection, schedule: Q01DX005 (ip), vehicle: other) was 107 % of control and the T/C (dose: 100.0 mg/kg/injection, schedule: Q01DX005 (ip), vehicle: other) was 110 % of control. The T/C (dose: 200.0 mg/kg/injection, schedule: Q01DX005 (ip), vehicle: other) was 104 % of control.

With O=C1CCCC(O)=C1[Se]C1=C(O)CCCC1=O the T/C (dose: 6.25 mg/kg/injection, schedule: Q01DX001 (ip), vehicle: saline) was 103 % of control, the T/C (dose: 12.5 mg/kg/injection, schedule: Q01DX001 (ip), vehicle: saline) was 101 % of control and the T/C (dose: 25.0 mg/kg/injection, schedule: Q01DX001 (ip), vehicle: saline) was 101 % of control.

With CC(C)N(CCO)CCO the T/C [1] was 104 % of control, the T/C [2] was 98 % of control and the T/C [3] was 100 % of control.

In the case of CCNCC1COc2cccc(OCC)c2O1 (stereo unspecified), the T/C (dose: 25.0 mg/kg/injection, schedule: Q04DX002 (ip), vehicle: saline) is reported as 104 % of control, the T/C (dose: 50.0 mg/kg/injection, schedule: Q04DX002 (ip), vehicle: saline) is reported as 101 % of control and the T/C (dose: 100.0 mg/kg/injection, schedule: Q04DX002 (ip), vehicle: saline) is reported as 99 % of control and 108 % of control.

O=[N+]([O-])c1cccc2nsnc12 was tested, and the T/C (dose: 6.25 mg/kg/injection, schedule: Q01DX009 (ip), vehicle: saline with Tween-80) was 100 % of control, the T/C [15] was 116 % of control and the T/C [13] was 94 % of control. For the same compound, the T/C [14] was 107 % of control.

For CSc1nnc(CCC(=O)Nc2ccc(Cl)cc2Cl)o1, the T/C (dose: 60.0 mg/kg/injection, schedule: Q01DX005 (ip), vehicle: saline with Tween-80) was 106 % of control and the T/C (dose: 120.0 mg/kg/injection, schedule: Q01DX005 (ip), vehicle: saline with Tween-80) was 108 % of control.

With CCC(=O)C(=O)c1ccc(O)cc1O the T/C (dose: 50.0 mg/kg/injection, schedule: Q01DX009 (ip), vehicle: Klucel (hydroxypropylcellulose) (HPC)) was 108 % of control, the T/C (dose: 100.0 mg/kg/injection, schedule: Q01DX009 (ip), vehicle: Klucel (hydroxypropylcellulose) (HPC)) was 108 % of control and the T/C (dose: 200.0 mg/kg/injection, schedule: Q01DX009 (ip), vehicle: Klucel (hydroxypropylcellulose) (HPC)) was 105 % of control.

With C=CC1CCCC[N+]1(C)Cc1ccccc1 (stereo unspecified) the T/C (dose: 6.25 mg/kg/injection, schedule: Q01DX005 (ip), vehicle: saline) was 94 % of control and the T/C (dose: 12.5 mg/kg/injection, schedule: Q01DX005 (ip), vehicle: saline) was 98 % of control.

With O=c1oc2cc(N=Cc3ccccc3Cl)ccc2c2ccccc12 the T/C (dose: 6.25 mg/kg/injection, schedule: Q01DX009 (ip), vehicle: saline) was 90 % of control, the T/C (dose: 12.5 mg/kg/injection, schedule: Q01DX009 (ip), vehicle: saline) was 90 % of control and the T/C (dose: 25.0 mg/kg/injection, schedule: Q01DX009 (ip), vehicle: saline) was 91 % of control. The T/C [14] was 98 % of control, the T/C (dose: 50.0 mg/kg/injection, schedule: Q01DX009 (ip), vehicle: saline) was 91 % of control and the T/C [10] was 114 % of control. The T/C [11] was 113 % of control and the T/C [12] was 87 % of control.

For CC(N)C(=O)NCC(=O)NC(CO)C(=O)NC(CCC(=O)O)C(=O)O (stereo unspecified) (H-AGSE-OH; configuration not given here), the T/C (dose: 9.0 mg/kg/injection, schedule: Q01DX005 (ip), vehicle: water) was 96 % of control, the T/C (dose: 18.0 mg/kg/injection, schedule: Q01DX005 (ip), vehicle: water) was 102 % of control and the T/C (dose: 36.0 mg/kg/injection, schedule: Q01DX005 (ip), vehicle: water) was 100 % of control. For the same compound, the T/C (dose: 72.0 mg/kg/injection, schedule: Q01DX005 (ip), vehicle: water) was 110 % of control and the T/C (dose: 144.0 mg/kg/injection, schedule: Q01DX005 (ip), vehicle: water) was 103 % of control.

With Oc1cc2c(cc1C/C=C/c1ccccc1)OCO2 the T/C (dose: 2.5 mg/kg/injection, schedule: Q01DX009 (ip), vehicle: saline with Tween-80) was 101 % of control, the T/C (dose: 5.0 mg/kg/injection, schedule: Q01DX009 (ip), vehicle: saline with Tween-80) was 103 % of control and the T/C (dose: 10.0 mg/kg/injection, schedule: Q01DX009 (ip), vehicle: saline with Tween-80) was 101 % of control.

For C=C1C(=O)C23C(OC(=O)/C=C/c4ccccc4)C1CCC2C12COC3(O)C(O)C1C(C)(C)CCC2O (stereo unspecified), the T/C (dose: 3.75 mg/kg/injection, schedule: Q01DX009 (ip), vehicle: saline with Tween-80) was 98 % of control, the T/C (dose: 7.5 mg/kg/injection, schedule: Q01DX009 (ip), vehicle: saline with Tween-80) was 95 % of control and the T/C (dose: 15.0 mg/kg/injection, schedule: Q01DX009 (ip), vehicle: saline with Tween-80) was 101 % of control. The T/C (dose: 30.0 mg/kg/injection, schedule: Q01DX009 (ip), vehicle: saline with Tween-80) was 98 % of control.

For Cc1ccc(S(=O)(=O)N2C(=O)CCC2=O)cc1, the T/C (dose: 100.0 mg/kg/injection, schedule: Q04DX003 (ip), vehicle: Klucel (hydroxypropylcellulose) (HPC)) was 106 % of control, the T/C (dose: 100.0 mg/kg/injection, schedule: Q04DX003 (ip), vehicle: saline with Tween-80) was 105 % of control and the T/C (dose: 200.0 mg/kg/injection, schedule: Q04DX003 (ip), vehicle: Klucel (hydroxypropylcellulose) (HPC)) was 120 % of control. For the same compound, the T/C (dose: 200.0 mg/kg/injection, schedule: Q04DX003 (ip), vehicle: saline with Tween-80) was 100 % of control and the T/C (dose: 400.0 mg/kg/injection, schedule: Q04DX003 (ip), vehicle: saline with Tween-80) was 110 % of control.

For O=C(O)C(Cc1ccc(O)cc1)NS(=O)(=O)Cc1ccccc1 (stereo unspecified), the T/C (dose: 100.0 mg/kg/injection, schedule: Q01DX009 (ip), vehicle: DMSO) was 99 % of control and the T/C (dose: 200.0 mg/kg/injection, schedule: Q01DX009 (ip), vehicle: DMSO) was 92 % of control.
